Test results from PMC11251039, “Harnessing cholesterol uptake of malaria parasites for therapeutic applications” (EMBO Molecular Medicine, 2024).
“And” between values parts separate entries of the source, which are not always exact repeats. Equal entries are not always repeated.

Legend:
[1] = system: P. falciparum stage III–IV gametocytes; assay: P. falciparum gametocyte viability assay (MitoTracker, flow cytometry), stage III-IV; type: cell-based, Plasmodium falciparum; conditions: 48 h; for Gametocyte stage III-IV viability, percentage of control: listed as BC9B
Procedure: (§1) Gametocyte assays commenced seven days (stage III–IV) or ten days (stage V) post-invasion. […]
(§2) Plasmodium falciparum Gametocyte Viability Assays:
(§3) Asexual P. falciparum parasites were induced to form gametocytes as described (21).
(§4) Synchronized trophozoite-stage parasites at 2% parasitaemia were incubated overnight and […]
(§5) haematocrit maintained at 4%. On the subsequent day (designated as day 0) of gametocytogenesis, the culture containing early ring-stage parasites was first purified by sorbitol synchronisation to remove asynchronous trophozoites, and passed through a magnetic field in a sterile MACS® column in a SuperMACSTM II magnet to remove remaining late-stage parasites or later-stage gametocytes (negative selection). The culture medium was supplemented with 50 mM N-acetyl-D-glucosamine to inhibit asexual parasite proliferation, and changed daily. Sorbitol treatment was performed on Day 1, 5, and 6 to further remove asexual parasites. Gametocytes were magnetically enriched (positive selection) in a sterile column with a SuperMACSTM II magnet and eluted in culture media with 50 mM N-acetyl-D-glucosamine. These gametocytes were incubated overnight at 37 °C under microaerophilic conditions, and purity was assessed by examination under a light microscope (400× […]
(§6) Gametocyte viability was assessed as described by Ridgway et al. (21) with modifications.
(§7) Compounds or solvent controls (DMSO) were serially diluted across 96-well plates in culture media supplemented with 50 mM N-acetyl-D-glucosamine. Culture media without compound was used as a negative control. […]
(§8) control to determine background gametocyte fluorescence. Stage III-IV gametocytes (Day 7) or stage V (day 10) gametocytes were concentrated and added to the plate with 200 µL per well. The plate was incubated for 48 hours at 37 °C under humid microaerophilic conditions.
(§9) Parasites were then stained with 500 nM MitoTrackerTM Deep Red FM and 5 μg/ml Hoechst […]
(§10) cytometer as described above. […]
(§11) excluded. Live (positive) and dead (negative) gametocytes were differentiated by […]
(§12) percentage of each was calculated. […]

[2] = system: P. falciparum stage V gametocytes; assay: P. falciparum gametocyte viability assay (MitoTracker, flow cytometry), stage V; type: cell-based, Plasmodium falciparum; conditions: 48 h; for Gametocyte stage V viability, percentage of control: listed as BC9B
Procedure: as §1, §2, §3, §4, §5, §6, §7, §8, §9, §10, §11, §12

[3] = system: human hepatoma cells (Huh7); assay: Human hepatoma viability assay (CellTiter-Blue); type: cell-based; conditions: for Huh7 viability, dose-response data points (Figure 3F): replicate data points, listed as BC9B
Procedure: Huh7 hepatoma viability assays were conducted in the same manner as the P. berghei assays, with metabolic capacity (indicating viability) measured with a fluorescence microplate reader after incubation with CellTiter-Blue® (Promega) for 3 h.
Appendix Fraser/Curtis et al. […]
Human Hepatoma Viability Assays:
The Huh7 hepatoma cell line (ATCC) was maintained under routine culture conditions in Dulbecco's Modified Eagle Medium (DMEM) containing 3.7 g/L NaHCO3 supplemented with 10% foetal bovine serum (FBS), 100 units/mL penicillin, and 100 μg/mL streptomycin at 37 °C in a humidified 5% CO2 incubator.
Viability assays were performed in parallel to the P. berghei growth inhibition. 10,000 Huh7 cells were seeded in 96-well and dark-sided microplates (Greiner Bio One) and cultured at 37°C, 5% CO2 and 80% humidity. The next day, the media was replaced with compounds or solvent controls (DMSO) serially diluted in culture media. Media was partially replaced with new drug dilutions over the following two days. After 48 hours, CellTiter-Blue® (Promega) was added according to the manufacturer’s instructions and incubated for 3 hours. Fluorescence intensity was measured with 530/25 ex and 590/20 em in a Synergy HTX plate reader (Agilent).

[4] = system: human foreskin fibroblasts (HFF); assay: Human foreskin fibroblast growth inhibition assay (SYBR Safe); type: cell-based; conditions: Homo sapiens, Fibroblast; 72 h, HFF; read-out: IC50, human fibroblast growth inhibition
Procedure: HFF cell growth inhibition assays commenced by adding 5000 cells to each well of a 96-well plate. 10 µg/mL cycloheximide was used as a no-growth control. DNA replication (indicating growth) was measured at the specified time using SYBR Safe DNA Gel Stain (Invitrogen 33102) and a fluorescence microplate reader. […]
Human Foreskin Fibroblast Growth Inhibition Assays:
The HFF cell line was maintained under routine culture conditions in DMEM containing 3.7 g/L NaHCO3 supplemented with 10% v/v newborn calf serum (NCS), 50 units/mL penicillin, 50 μg/mL streptomycin, 10 μg/mL gentamicin, 0.25 μg/mL amphotericin B, and 0.2 mM L-glutamine at 37 °C in a humidified 5% CO2 incubator. […]
HFF cells were detached from a flask using 0.25% Trypsin with 0.2 g/L EDTA (Sigma T4049) and washed with culture media. Cells were incubated with a serial dilution of each compound, or media/DMSO alone. Cycloheximide at 10 µg/mL was used as a positive control to determine background fluorescence. Approximately 5 000 cells were seeded in each well. Plates were incubated at 37 °C for 72 hours (until reaching confluency) and the media was removed. Plates were transferred to a -18 °C freezer. Plates were thawed and SYBR Safe DNA Gel Stain (final concentration 1/10,000) diluted in lysis buffer (as above) was added. Fluorescence was read at 490 nm excitation/ 520 nm emission on a FLUOstar Optima fluorescence plate reader. […]

Structure (SMILES): COc1cc(NC(C)CCCNC(=O)CCC(=O)OC(C)C)c2ncccc2c1 (stereo not shown) [PQ-link]
- Gametocyte stage III-IV viability, percentage of control ([1]; 3.125000000 uM, replicate values, source data Fig. 2C, 3.125 µM): 95.52% (2×) and 103.7% and 98.94% and 103.3% and 102% and 98.19% and 98.79% and 101.3% and 100.5% and 109.4%
- Gametocyte stage III-IV viability, percentage of control ([1]; 6.250000000 uM, replicate values, source data Fig. 2C, 6.25 µM): 103.3% and 99.89% and 101.1% and 100.9% and 104.1% and 103.4% and 100.6% and 98.59% and 102.7% and 100.3% and 94.88%
- Gametocyte stage III-IV viability, percentage of control ([1]; 12.500000000 uM, replicate values, source data Fig. 2C, 12.5 µM): 96% and 94.38% and 101.5% and 100.5% and 100.7% and 100.4% and 98.39% (2×) and 102.7% and 98.65% and 95.96%
- Gametocyte stage III-IV viability, percentage of control ([1]; 25.000000000 uM, replicate values, source data Fig. 2C): 93.41% and 97.62% and 99.34% and 95.75% and 97.14% and 99.2% and 97.59% and 96.58% and 96.77% and 92.46% and 91.11%
- Gametocyte stage III-IV viability, percentage of control ([1]; 50.000000000 uM, replicate values, source data Fig. 2C): 83.69% and 82.72% and 92.56% and 88.38% and 90.37% and 90.15% and 87.94% (2×) and 83.57% and 86.8% and 83.3%
- Gametocyte stage III-IV viability, percentage of control ([1]; 100.000000000 uM, replicate values, source data Fig. 2C): 63.1% and 60.41% and 65.29% and 78% and 74.98% and 78.2% and 65.68% and 65.48% and 64.86% and 59.49% and 56.77% and 63.58%
- Gametocyte stage III-IV viability, percentage of control ([1]; 200.000000000 uM, replicate values, source data Fig. 2C): 0.3329% and -3.262% and -3.462% and -33.89% and -33.85% and -34.28% and -34.3% and -33.84% and -35.23%
- viability at 3.125 µM ([1]; Plasmodium falciparum, 3.125000000 uM, replicate values, source data Fig. 2C, read-out: Gametocyte stage III-IV viability, percentage of control): 97.8%
- viability at 6.25 µM ([1]; Plasmodium falciparum, 6.250000000 uM, replicate values, source data Fig. 2C, read-out: Gametocyte stage III-IV viability, percentage of control): 100%
- viability at 12.5 µM ([1]; Plasmodium falciparum, 12.500000000 uM, replicate values, source data Fig. 2C, read-out: Gametocyte stage III-IV viability, percentage of control): 94.9%
- viability at 25 µM ([1]; Plasmodium falciparum, 25.000000000 uM, replicate values, source data Fig. 2C, read-out: Gametocyte stage III-IV viability, percentage of control): 92.1%
- viability at 50 µM ([1]; Plasmodium falciparum, 50.000000000 uM, replicate values, source data Fig. 2C, read-out: Gametocyte stage III-IV viability, percentage of control): 82.6%
- IC50 ([1]; Plasmodium falciparum, read-out: IC50, P. falciparum gametocyte stage III-IV inhibition): 103 µM
- Gametocyte stage V viability, percentage of control ([2]; 50.000000000 uM, replicate values, source data Fig. 2D): 66.98% and 63.41% and 52.55% and 74.37% and 69.92% and 70.17%
- Gametocyte stage V viability, percentage of control ([2]; 100.000000000 uM, replicate values, source data Fig. 2D): 11.39% (2×) and 9.662% and 17.36% and 16.33% and 21.17% and 48.62% and 50.63% and 48.77%
- Gametocyte stage V viability, percentage of control ([2]; 200.000000000 uM, replicate values, source data Fig. 2D): -1.011% and -1.165% and -0.9342% and -0.2117% and -0.2822% and -0.3175% and 0.4794% and 0.8647% and 0.8741%
- viability at 6.25 µM ([2]; Plasmodium falciparum, 6.250000000 uM, replicate values, source data Fig. 2D, read-out: Gametocyte stage V viability, percentage of control): 103%
- viability at 12.5 µM ([2]; Plasmodium falciparum, 12.500000000 uM, replicate values, source data Fig. 2D, read-out: Gametocyte stage V viability, percentage of control): 104%
- viability at 25 µM ([2]; Plasmodium falciparum, 25.000000000 uM, replicate values, source data Fig. 2D, read-out: Gametocyte stage V viability, percentage of control): 87.6%
- IC50 ([2]; Plasmodium falciparum, read-out: IC50, P. falciparum gametocyte stage V inhibition): 70.5 µM
- Huh7 viability, dose-response data points (Figure 3F) ([3]; 0.015241580 uM, 0.0152416 µM): 107.3 and 97.91 and 99.21 and 88.27 and 85.99 and 85.17 and 77.48 and 99.67 and 102.9
- Huh7 viability, dose-response data points (Figure 3F) ([3]; 0.045724740 uM, 0.0457247 µM): 101.4 (2×) and 102.9 and 96.11 and 84.48 and 82.6 and 86.76 and 77.19 and 99.77
- Huh7 viability, dose-response data points (Figure 3F) ([3]; 0.137174210 uM, 0.137174 µM): 100.3 and 97.53 and 89.5 and 87.16 and 86.15 and 91.05 and 98.93 and 94.82
- Huh7 viability, dose-response data points (Figure 3F) ([3]; 0.411522630 uM, 0.411523 µM): 98.17 and 99.16 and 96.93 and 83.82 and 84.25 and 87.07 and 70.92 and 100.4 and 90.7
- Huh7 viability, dose-response data points (Figure 3F) ([3]; 1.234567900 uM, 1.23457 µM): 106.4 and 97.98 and 99.19 and 82.25 and 86.23 and 90.4 and 72.24 and 83.96 and 96.58
- Huh7 viability, dose-response data points (Figure 3F) ([3]; 3.703703700 uM, 3.7037 µM): 96.27 and 98.44 and 90.47 and 77.12 and 78.19 and 82.37 and 76.62 and 90.94 and 92.11
- Huh7 viability, dose-response data points (Figure 3F) ([3]; 11.111111100 uM, 11.1111 µM): 98.42 and 95.99 and 90.47 and 70.14 and 68.57 and 67.94 and 56.41 and 72.23 and 71.76
- Huh7 viability, dose-response data points (Figure 3F) ([3]; 33.333333300 uM, 33.3333 µM): 79.4 and 75.47 and 83.67 and 39.88 and 39.61 and 43.08 and 30.62 and 36.38 and 34.72
- Huh7 viability, dose-response data points (Figure 3F) ([3]; 100.000000000 uM): 33.18 and 40.69 and 39.77 and 19.19 and 19.87 and 20.01 and 9.61 and 11.04 and 10.16
- IC50 ([3]; Homo sapiens, Huh-7, 48 h, Huh7, read-out: IC50, human hepatoma inhibition (viability)): 32.8 µM
- IC50 [4]: 98.2 µM
